From patent publication US7049292B2, “Therapeutically effective peptides related to preproinsulin” (King's College London, priority 2004, dated 2006)
Values joined by “and” are separate entries in the source; they are usually repeats but may differ in a detail not shown here. Equal entries are not always repeated. Where two headings read alike, the source gives them in different places. Ends that are not written are not given here.

Tests used:
[1] = tested on: anti-inflammatory (IL-10 secreting) CD4+ T lymphocytes in PBMCs; format: cell-based, human; details: for IL-10 response, stimulation index (SI): PBMCs, peptide 10 μM
[2] = tested on: pathogenic (IFN-γ) CD4+ T lymphocytes in PBMCs; experiment: IFN-γ ELISPOT analysis of PBMCs cultured with peptide; format: cell-based, human; details: for Prevalence of IFN-γ responses, Totals (%) / Prevalence of IFN-γ responses, Totals (responders/tested): positive response SI≧3.0; for IFN-γ response, stimulation index (SI): PBMCs, peptide 10 μM
[3] = non-diabetic control subject C13
[4] = patient #3, T1DM with HLA-DR4 alleles
[5] = patient #27, T1DM with non-DR4 alleles
[6] = T1DM patients with HLA-DR4 alleles
[7] = T1DM patients with non-DR4 alleles
[8] = patient #5, T1DM with HLA-DR4 alleles
[9] = patient #6, T1DM with HLA-DR4 alleles
[10] = patient #13, T1DM with HLA-DR4 alleles
[11] = patient #28, T1DM with non-DR4 alleles
[12] = patient #29, T1DM with non-DR4 alleles
[13] = non-diabetic control subject C8
[14] = patient #12, T1DM with HLA-DR4 alleles
[15] = patient #24, T1DM with HLA-DR4 alleles
[16] = patient #35, T1DM with non-DR4 alleles
[17] = patient #10, T1DM with HLA-DR4 alleles
[18] = patient #19, T1DM with HLA-DR4 alleles
[19] = patient #26, T1DM with non-DR4 alleles
[20] = non-diabetic control subject C5
[21] = non-diabetic control subjects, positive response SI≧3.0
[22] = patient #4, T1DM with HLA-DR4 alleles
[23] = patient #9, T1DM with HLA-DR4 alleles
[24] = patient #30, T1DM with non-DR4 alleles
[25] = non-diabetic control subject C9
[26] = non-diabetic control subject C4

| Substance | Prevalence of IL-10 responses, Totals (responders/tested) [1] | IL-10 response, stimulation index (SI) [1, 3] | IL-10 response, stimulation index (SI) [1, 4] | IL-10 response, stimulation index (SI) [1, 5] | Prevalence of IFN-γ responses, Totals (%) [2, 6] | Prevalence of IFN-γ responses, Totals (responders/tested) [2, 6] | Prevalence of IFN-γ responses, Totals (%) [2, 7] | Prevalence of IFN-γ responses, Totals (responders/tested) [2, 7] | Prevalence of IFN-γ responses, Totals (%) ([2]; non-diabetic control subjects) | Prevalence of IFN-γ responses, Totals (responders/tested) ([2]; non-diabetic control subjects) | IFN-γ response, stimulation index (SI) [2, 8] | IFN-γ response, stimulation index (SI) [2, 9] | IFN-γ response, stimulation index (SI) [2, 10] | IFN-γ response, stimulation index (SI) [2, 11] | IL-10 response, stimulation index (SI) [1, 13] | IL-10 response, stimulation index (SI) [1, 15] | IL-10 response, stimulation index (SI) [1, 16] | IFN-γ response, stimulation index (SI) [2, 4] | IFN-γ response, stimulation index (SI) [2, 18] | IFN-γ response, stimulation index (SI) [2, 19] | also measured |
| --- | --- | --- | --- | --- | --- | --- | --- | --- | --- | --- | --- | --- | --- | --- | --- | --- | --- | --- | --- | --- | --- |
| QPLALEGSLQKRGIVEQ [C22-A5] | 1/12 and 1/5 and 1/13 | 4.3 | 7.36 | 3.0 | (18) % | 3/17 | (25) % | 2/8 | (0) % | 0/14 | 3.7 | 22.0 | 3.3 | 5.8 |  |  |  |  |  |  | IFN-γ response, stimulation index (SI) [2, 12]: 4.0 |
| KLKVESSPSRSDYINASPIIEHDP [752–75, IA-2 peptide eluted from HLA-DR4] |  |  | 16.0 | 33.0 | (32) % | 8/25 | (9) % | 1/11 | (0) % | 0/14 |  |  | 3.4 |  | 16.0 | 15.0 | 4.0 | 4.3 | 7.0 | 3.0 | Prevalence of IL-10 responses, Totals (responders/tested) ([1]; T1DM patients with HLA-DR4 alleles, positive response SI≧3.0): 3/17; Prevalence of IL-10 responses, Totals (responders/tested) ([1]; listed as 725–75): 2/7 and 2/14; IL-10 response, stimulation index (SI) ([1]; non-diabetic control subject C3): 8.7; IL-10 response, stimulation index (SI) [1, 14]: 3.79; IFN-γ response, stimulation index (SI) [2, 17]: 12.3; IFN-γ response, stimulation index (SI) [2, 14]: 3.3; IFN-γ response, stimulation index (SI) ([2]; patient #20, T1DM with HLA-DR4 alleles): 3.9; IFN-γ response, stimulation index (SI) ([2]; patient #23, T1DM with HLA-DR4 alleles): 3.6 |
| GSLQPLALEGSLQKRGIV [C19-A3] | 1/12 and 2/5 | 5.0 | 10.21 | 7.0 | (47) % | 8/17 | (38) % | 3/8 | (0) % | 0/14 |  | 63.6 |  | 5.0 | 29.0 |  |  | 10.7 |  | 3.3 | IL-10 response, stimulation index (SI) [1, 20]: 10.3; Prevalence of IL-10 responses, Totals (responders/tested) [1, 21]: 3/13; IL-10 response, stimulation index (SI) ([1]; patient #33, T1DM with non-DR4 alleles): 3.1; IFN-γ response, stimulation index (SI) [2, 22]: 3.5; IFN-γ response, stimulation index (SI) ([2]; patient #8, T1DM with HLA-DR4 alleles): 3.0; IFN-γ response, stimulation index (SI) [2, 23]: 4.6; IFN-γ response, stimulation index (SI) [2, 17]: 5.0; IFN-γ response, stimulation index (SI) ([2]; patient #11, T1DM with HLA-DR4 alleles): 3.3; IFN-γ response, stimulation index (SI) [2, 14]: 10.7; IFN-γ response, stimulation index (SI) [2, 24]: 5.7 |
| SFYLKNVQTQETRTLTQFHF [853–72, IA-2 peptide eluted from HLA-DR4] | 2/17 and 2/7 and 2/14 |  |  | 20.0 | (28) % | 7/25 | (18) % | 2/11 | (7) % | 1/14 |  | 6.6 | 3.6 |  | 66.0 | 9.0 | 9.6 | 10 |  |  | IL-10 response, stimulation index (SI) [1, 20]: 4.7; IL-10 response, stimulation index (SI) [1, 9]: 4.3; IFN-γ response, stimulation index (SI) [2, 25]: 4.7; IFN-γ response, stimulation index (SI) ([2]; patient #1, T1DM with HLA-DR4 alleles): 10.0; IFN-γ response, stimulation index (SI) [2, 23]: 5.2; IFN-γ response, stimulation index (SI) [2, 15]: 48.3; IFN-γ response, stimulation index (SI) [2, 5]: 3.1; IFN-γ response, stimulation index (SI) ([2]; patient #34, T1DM with non-DR4 alleles): 3.7 |
| 652–80: IA-2 peptide sequence, residues 652–80 (SRVSSVSSQFSDAAQASPSSHSSTPSWCE; UniProt Q16849 652-680, looked up, fragment) | 2/17 and 1/7 and 4/14 |  | 4.8 |  | (24) % | 6/25 | (9) % | 1/11 | (7) % | 1/14 | 6.2 | 23.2 |  |  | 4.0 | 4.5 | 8.0 | 3.0 |  |  | IL-10 response, stimulation index (SI) [1, 26]: 5.3; IL-10 response, stimulation index (SI) [1, 25]: 3.5; IL-10 response, stimulation index (SI) ([1]; non-diabetic control subject C10): 8.4; IFN-γ response, stimulation index (SI) [2, 25]: 3.8; IFN-γ response, stimulation index (SI) ([2]; patient #2, T1DM with HLA-DR4 alleles): 3.1; IFN-γ response, stimulation index (SI) ([2]; patient #7, T1DM with HLA-DR4 alleles): 6.4; IFN-γ response, stimulation index (SI) [2, 15]: 36.0; IFN-γ response, stimulation index (SI) [2, 5]: 16.7 |
| 955–76: IA-2 peptide sequence, residues 955–76 (SKDQFEFALTAVAEEVNAILKA; UniProt Q16849 955-976, looked up, fragment) | 2/17 and 1/7 |  | 3.0 | 4.0 | (16) % | 4/25 | (18) % | 2/11 | (0) % | 0/14 |  | 11.2 |  |  | 15.0 | 29.5 |  | 4.7 | 3.0 | 5.0 | IL-10 response, stimulation index (SI) [1, 26]: 5.6; IL-10 response, stimulation index (SI) ([1]; non-diabetic control subject C11): 5.2; Prevalence of IL-10 responses, Totals (responders/tested) [1, 21]: 3/14; IFN-γ response, stimulation index (SI) [2, 22]: 3.0; IFN-γ response, stimulation index (SI) [2, 15]: 38.0; IFN-γ response, stimulation index (SI) [2, 24]: 4.7 |
| GGGPGAGSLQPLALEGSLQK [C13-C32, preproinsulin peptide, residues C13-C32] |  |  |  |  | (12) % | 2/17 | (25) % | 2/8 | (0) % | 0/14 | 3.8 | 8.6 |  | 11.5 |  |  |  |  |  |  | Prevalence of IL-10 responses, Totals (responders/tested) ([1]; listed as C13–32): 1/12 and 1/5 and 1/13; IFN-γ response, stimulation index (SI) [2, 12]: 4.7 |
| 793–817: IA-2 peptide sequence, residues 793–817 (DFWQMVWESGCTVIVMLTPLVEDGV; UniProt Q16849 793-817, looked up, fragment) | 1/17 and 1/7 and 2/14 | 3.5 | 3.0 | 34.0 | (12) % | 3/25 | (0) % | 0/11 | (0) % | 0/14 |  |  | 4.1 |  |  |  |  | 9.7 | 19.0 |  | IL-10 response, stimulation index (SI) [1, 26]: 3.4; IFN-γ response, stimulation index (SI) [2, 22]: 3.5 |
